Series [1] relates to Panc-1 cells. Description: Confocal fluorescence imaging of FITC labeled peptides in cells. The series is classed as cell-based. The following applies: confocal microscope, 10 μM FITC labeled peptides, Panc-1 cells. On the procedure:
To examine whether PRTC could permeate into pancreatic cancer cells, we synthesized fluorescein isothiocyanate (FITC) labeled PRTC, PRTC-m, PRTC-v, PRTC-r (PRTC without RRRRK) as well as TAT (a widely used cell penetrating peptide, as a positive control).
Figure 3 Identification of the permeability of PRTC in Panc-1 cells. (A) Entry of FITC- labeled peptides into Panc-1 cells tested by flow cytometry. FITC-TAT is the positive control. Measurements were performed in triplicate. (B) Quantification of cellular uptake of Panc-1 cells treated with different concentrations of FITC-PRTC. (C) Confocal microscope images of Panc-1 cells treated with 10 μM FITC labeled peptides. Scale bars, 10 μm. (D) Confocal microscope images of Panc-1 cells treated with different dosages of FITC-PRTC. Scale bars, 10 μm.

Series [2] concerns the target T1, purified GST-CREPT protein (Homo sapiens, UniProt Q9NQG5).
T1 construct: made in house
T1 sequence (Q9NQG5 1-326): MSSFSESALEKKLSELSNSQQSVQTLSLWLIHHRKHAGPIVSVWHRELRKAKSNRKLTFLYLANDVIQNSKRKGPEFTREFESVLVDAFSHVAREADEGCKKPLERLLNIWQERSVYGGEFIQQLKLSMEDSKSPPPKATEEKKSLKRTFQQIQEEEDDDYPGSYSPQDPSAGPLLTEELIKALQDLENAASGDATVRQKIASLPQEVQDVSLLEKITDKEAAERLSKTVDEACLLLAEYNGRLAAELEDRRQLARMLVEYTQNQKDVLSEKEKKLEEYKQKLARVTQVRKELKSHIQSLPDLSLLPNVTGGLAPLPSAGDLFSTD
Description: Microscale thermophoresis (MST). Type of series: binding. The note with it: FITC-labeled peptide 100 nM, gradient dilutions of purified GST-CREPT. On the procedure:
FITC-labeled PRTC and PRTC-m were regarded as ligands. After a pretest, 100 nM of both PRTC and PRTC-m generated the most appropriate value of fluorescence. Gradient dilutions of purified CREPT proteins were regarded as the target. The Kd value was measured by Microscale Thermophoresis NT.115 and was analyzed by MO.AffinityAnalysis (Nano Temper, German).
For orientation: In MST a laser heats a spot of the sample, and binding alters the fluorescence response.

The target of another series is T2, CREPT protein (Homo sapiens, UniProt Q9NQG5).
T2 construct: made in house
T2 sequence (Q9NQG5 1-326): T1 sequence (Q9NQG5 1-326)
Description: Thermal shift assay (TSA). Type of series: binding. The note with it: GST-tagged CREPT 5.33 μM, SYPRO Orange, 25 to 70 °C at 1 °C/min. On the procedure:
Purified CREPT proteins were appropriately diluted in a buffer containing 50 mM Tris-HCl, pH 8.0, 150 mM NaCl. The final concentration of CREPT protein was 5.33 μM. SYPRO Orange dye was diluted into 10 μM. The PCR plates were sealed, shaken, and centrifuged after proteins and peptides were added. Thermal scanning (25 to 70 °C at 1 °C/min) was performed using a real-time PCR instrument (Bio-Rad). Melting curves were generated by Prism 7.0 based on the raw data.

The nature of series [3]: Circular dichroism (CD) spectroscopy. Type of series: physicochemical. The following applies: 0.1 mg/mL in deionized water, room temperature. The procedure:
All peptides were dissolved in the deionized water at a final concentration of 0.1 mg/mL. The CD spectra were measured by using a 1 nm bandwidth with a 1 nm step resolution from 190 to 260 nm at room temperature (Jasco spectropolarimeter, Japan). Final spectra were obtained from the average of three parallel scans after subtracting a spectrum of deionized water recorded under the same conditions. Each sample was scanned thrice and the averaged spectrum was smoothed. The helicity were calculated by CDNN 2.1 [59], [60].

Series [4] has as its target T3, endogenous CREPT protein in Panc-1 cells (Homo sapiens, UniProt Q9NQG5).
T3 construct: endogenous protein level of CREPT in Panc-1, AsPc-1 and MIA-PaCa-2 cells; endogenous in cells; host or cells: Panc-1, AsPc-1, MIA PaCa-2
T3 sequence (Q9NQG5 1-326): T1 sequence (Q9NQG5 1-326)
Description: Western blot of endogenous CREPT (degradation). Type of series: cell-based. The note with it: 10 μM or 20 μM peptide. On the procedure: (§1) For exogenous immunoprecipitation assays, HEK293T cells were plated in 60 mm dishes and then transfected with the indicated plasmids. After 24 h, cells were harvested using RIPA buffer (50 mM Tris-HCl pH 8.0, 2 mM EDTA pH 8.0, 150 mM NaCl, 1% NP-40, 0.5% sodium deoxycholate, 0.1% SDS) with mixed protease inhibitors. Cell lysates were incubated with 2 μg of the indicated antibodies and 30 μL of protein A/G-Sepharose beads at 4 °C overnight. Beads were eluted five times with lysis buffer (50 mM Tris-HCl pH 7.6, 1 mM EDTA pH 8.0, 165 mM NaCl, 0.5% NP-40), and thereafter, a western blot assay was performed to analyze the association by using the indicated antibodies. Western blot was performed as previously reported. Anti-β-actin and anti-Flag antibodies were purchased from Sigma. Anti-Myc antibody was purchased from Santa Cruz Biotechnology. Antibody against CREPT was produced in the laboratory.
To address whether PRTC could induce CREPT degradation, we examined the endogenous protein level of CREPT in Panc-1, AsPc-1 and MIA-PaCa-2 cells in the presence of different dosages of PRTC. […] Consistently, treatment with PRTC led to decreases in CREPT protein at different times (Figure 5B, S3A). […] To further visualize the degradation process, we stained the endogenous CREPT protein with an antibody against CREPT in the cells treated with FITC-labeled PRTC.
Figure 5 PRTC induces the ubiquitination and proteasome- dependent degradation of the endogenous CREPT protein. (A) Immunoblot of CREPT following 24 h incubation with different dosages of PRTC or PRTC-m in Panc-1 cells. (B) Immunoblot of CREPT exposed to 10 μM PRTC or PRTC-m for different times in Panc-1 cells. (C) Western blot analysis of CREPT following 24 h incubation with 10 μM PTRC in Panc-1 cells. MG132 is an inhibitor of proteasome activity. (D) Immunofluorescence visualization of Panc-1 cells after treatment with PRTC for 24 h. Cells were stained with anti-CREPT antibody. Scale bars, 20 μm.
In general terms: In western blotting, separated proteins are transferred to a membrane and probed.

For series [5], the target named is T4, ubiquitinated CREPT in Panc-1 cells (Homo sapiens, UniProt Q9NQG5).
T4 construct: endogenous protein level of CREPT in Panc-1, AsPc-1 and MIA-PaCa-2 cells; endogenous in cells; host or cells: Panc-1, AsPc-1, MIA PaCa-2
T4 sequence (Q9NQG5 1-326): T1 sequence (Q9NQG5 1-326)
Description: Endogenous IP of CREPT with ubiquitin (Co-IP). The series is classed as cell-based. The note with it: 10 μM peptide for 24 h, IP: CREPT, IB: anti-ubiquitin. The procedure: as §1
In addition, a Co-IP experiment was performed in Panc-1 cells treated with 10 μM PRTC, PRTC-m or PRTC-v for 24 h. […] In the absence of MG132, the level of ubiquitinated CREPT was further increased by PRTC (Figure 6C, compare lane 1 and lane 2).
Figure 6 The degradation of CREPT by PRTC is dependent on its VHL ligand. (A) Immunoblot of CREPT following 24 h incubation with different dosages of PRTC or PRTC-v in Panc-1 cells. (B) Immunoblot of CREPT exposed to 10 μM PRTC or PRTC-v for different time points in Panc-1 cells. (C) Endogenous IP experiment of CREPT with ubiquitin treated with 10 μM PTRC, PTRC-m or PTRC-v in Panc-1 cells. IP: CREPT, IB: Anti-ubiquitin.

The test system of series [6] is Panc-1 cells. Description: Cell viability assay (CCK-8). The series is classed as cell-based. The following applies: 10 μM, CCK-8, OD450, three individual experiments. On the procedure: Cells were seeded into 96-well plates (1000 cells per well) and cultured for the indicated times. Cell viability was evaluated using a CCK-8 kit (Solarbio, Beijing, China). The value of OD450 was calculated by spectrophotometer and presented as the mean ± standard deviation (SD) from three individual experiments.

Series [7] concerns Panc-1 cells. Description: Wound healing. The following applies: 10 μM for 24 h, FBS-free DMEM. The series is classed as cell-based. The procedure: Cells were seeded in 6-well plates. Monolayer cells were scratched after culturing to obtain at least 95% confluence. Cells were washed with PBS and maintained in FBS-free DMEM and then treated with 10 μM PRTC and PRTC-m for 24 h. Migration distance was observed by microscopy and was measured by ImageJ from three individual experiments.

The target of series [8] is T5, purified GST-CREPT protein (microscale thermophoresis and thermal shift assay) (UniProt Q9NQG5 1-326).
T5 construct: CREPT (also named RPRD1B); it may be the same as m2 or m3; also called GST-tagged CREPT; purified CREPT proteins; source: purified
T5 sequence (looked up): T1 sequence (Q9NQG5 1-326)
Description: thermal shift assay; 5.33 μM purified CREPT protein in 50 mM Tris-HCl pH 8.0, 150 mM NaCl, SYPRO Orange, peptide or deionized H2O added; 25 to 70 °C at 1 °C/min. The following applies: both partners purified.

For series [9], the target named is T5, purified GST-CREPT protein (microscale …). Description: MST; 100 nM FITC-labeled peptide kept constant, gradient dilutions of purified GST-CREPT; Microscale Thermophoresis NT.115, MO.AffinityAnalysis. The note with it: both partners purified.

Non-standard residues stand in square brackets, D forms with d. Residues, ends and D or L forms follow the SMILES beside them. No end group written: not given here. *: point of attachment. FITC = O=C1OC2(c3ccc(O)cc3Oc3cc(O)ccc32)c2ccc(NC(=S)*)cc21; Hyp = O=C(O)[C@@H]1C[C@@H](O)CN1; Ahx = NCCCCCC(=O)O

As for “FITC-AHX-IYP (OH) AL-AHX-KDVPSEKEKKPEEYKQKPARV-RRRRK [FITC-PRTC-m, FITC labeled PRTC-m]”, the “localization of FITC labeled peptides in the cells” value with Panc-1 cells [1] is reported as “strong localization”.
The same measure, in the same setting: the entry for `CC[C@H](C)[C@H](NC(=O)CCCCCNC(=S)Nc1ccc2c(c1)C(=O)OC21c2ccc(O)cc2Oc2cc(O)ccc21)C(=O)N[C@@H](Cc1ccc(O)cc1)C(=O)N1C[C@H](O)C[C@H]1C(=O)N[C@@H](C)C(=O)N[C@@H](CC(C)C)C(=O)NCCCCCC(=O)N[C@@H](CCCCN)C(=O)N[C@@H](CC(=O)O)C(=O)N[C@H](C(=O)N[C@@H](CC(C)C)C(=O)N[C@@H](CO)C(=O)N[C@@H](CCC(=O)O)C(=O)N[C@@H](CCCCN)C(=O)N[C@@H](CCC(=O)O)C(=O)N[C@@H](CCCCN)C(=O)N[C@@H](CCCCN)C(=O)N[C@@H](CC(C)C)C(=O)N[C@@H](CCC(=O)O)C(=O)N[C@@H](CCC(=O)O)C(=O)N[C@@H](Cc1ccc(O)cc1)C(=O)N[C@@H](CCCCN)C(=O)N[C@@H](CCC(N)=O)C(=O)N[C@@H](CCCCN)C(=O)N[C@@H](CC(C)C)C(=O)N[C@@H](C)C(=O)N[C@@H](CCCNC(=N)N)C(=O)N[C@H](C(=O)O)C(C)C)C(C)C` [FITC-PRTC-r] ({FITC-Ahx}-IY[Hyp]AL[Ahx]KDVLSEKEKKLEEYKQKLARV-OH) is “very weak localization”.
On to “IYP (OH) AL-AHX-KDVPSEKEKKPEEYKQKPARV-RRRRK [PRTC-m, three leucine residues on PRTC were replaced with proline residues]”, for which the “association with CREPT (MST)” value in series [2] is reported as “failed to associate”. For the same molecule, the “effect on thermal stability of CREPT” value at CREPT protein is reported as “failed to alter”. Also, the “secondary structure by CD spectrum” value in series [3] was “disordered structure”. Moreover, the Helicity in series [3] (190 to 260 nm, average of three scans, calculated by CDNN 2.1) was 7.9%. Moreover, in [4], the “CREPT protein level at different times” value is “no effect”. Besides, the “ubiquitinated CREPT proteins” value in series [5] is “unable to mediate the accumulation”. Further, the cell proliferation result in the series with Panc-1 cells [6] is given as “failed”. In addition, the “cell movement (wound healing)” value with Panc-1 cells [7] is reported as “not”.

B1: PRTC (peptide)
peptide: IY[Hyp]AL[Ahx]KDVLSEKEKKLEEYKQKLARVRRRRK
notes: VHL ligand IYP(OH)AL; the P is trans-4-hydroxy-L-proline; followed by the AHX linker; CREPT ligand (CL): leucine-zipper-like motif of CREPT (RPRD1B), lysine 266 to valine 286; transmembrane transport pentapeptide; The thermal shift assay names the peptide only as PRTC; also called cell-permeable peptide-based PROTAC against CREPT; source: synthetic peptide (ChinaPeptides Co., Ltd.), purified by …
Regarding B1, the “dTm (thermal shift)” value in series [8] turned out to be 6 °C.

B2: FITC-PRTC (peptide)
peptide: {FITC-Ahx}-IY[Hyp]AL[Ahx]KDVLSEKEKKLEEYKQKLARVRRRRK
notes: VHL ligand IYP(OH)AL; the P is trans-4-hydroxy-L-proline; followed by the AHX linker; CREPT ligand (CL): leucine-zipper-like motif of CREPT (RPRD1B), lysine 266 to valine 286; transmembrane transport pentapeptide; Peptide-based PROTAC: VHL ligand, AHX linker, CREPT ligand, RRRRK; also called FITC-labeled PRTC; source: synthetic peptide (ChinaPeptides Co., Ltd.), purified by HPLC
For orientation: Kd means the free concentration of one partner at which half of the binding sites on the other are occupied at equilibrium, for simple one-to-one binding. On to B2, for which, in series [9], the Kd turned out to be 340 nM.

These data come from article PMC7069095, “A cell-permeable peptide-based PROTAC against the oncoprotein CREPT proficiently inhibits pancreatic cancer” (Theranostics, 2020).
